Laboratory results: US8802597B2, “Herbicidal pyrimidines” (E I du Pont de Nemours and Company, priority 2003, dated 2014)

Tests used:
Assay in all cases: Test A pre/postemergence
Format in all cases: in vivo
[1] = tested on: morningglory (Ipomoea spp.)
Procedure: (§1) Seeds of barnyardgrass (Echinochloa crus-galli), crabgrass (Digitaria sanguinalis), giant foxtail (Setaria faberi), morningglory (Ipomoea spp.), redroot pigweed (Amaranthus retroflexus) and velvetleaf (Abutilon theophrasti) were planted into a blend of loam soil and sand and treated preemergence with a directed soil spray using test chemicals formulated in a non-phytotoxic solvent mixture which included a surfactant. At the same time these species were also treated with postemergence applications of test chemicals formulated in the same manner.
(§2) Plants ranged in height from 2 to 10 cm and were in the 1- to 2-leaf stage for the postemergence treatment. Treated plants and untreated controls were maintained in a greenhouse for approximately ten days, after which time all treated plants were compared to untreated controls and visually evaluated for injury. Plant response ratings, summarized in Table A, are based on a 0 to 100 scale where 0 is no effect and 100 is complete control. A dash (-) response means no test results.

[2] = tested on: barnyardgrass (Echinochloa crus-galli)
Procedure: as §1, §2

[3] = tested on: redroot pigweed (Amaranthus retroflexus)
Procedure: as §1, §2

[4] = tested on: giant foxtail (Setaria faberi)
Procedure: as §1, §2

[5] = tested on: crabgrass (Digitaria sanguinalis)
Procedure: as §1, §2

[6] = tested on: velvetleaf (Abutilon theophrasti)
Procedure: as §1, §2

[7] = Postemergence, 125 g ai/ha, 0 to 100 scale (0 no effect, 100 complete control)
[8] = Postemergence, 500 g ai/ha, 0 to 100 scale (0 no effect, 100 complete control)
[9] = Preemergence, 125 g ai/ha, 0 to 100 scale where 0 is no effect and 100 is complete control, approximately ten days
[10] = Preemergence, 500 g ai/ha, 0 to 100 scale where 0 is no effect and 100 is complete control, approximately ten days

CCOC(=O)c1nc(-c2cc(Br)cc(OC)c2)nc(N)c1Cl [Compound 101]
Plant response rating, Morningglory [1, 7]: 0 | Plant response rating, Morningglory [1, 8]: 0 | Plant response rating, Morningglory [1, 9]: 0 | Plant response rating, Morningglory [1, 10]: 0 | Plant response rating, Barnyardgrass [2, 7]: 0 | Plant response rating, Barnyardgrass [2, 8]: 0 | Plant response rating, Barnyardgrass [2, 9]: 0 | Plant response rating, Barnyardgrass [2, 10]: 0 | Plant response rating, Pigweed [3, 7]: 0 | Plant response rating, Pigweed [3, 8]: 5 | Plant response rating, Pigweed [3, 9]: 0 | Plant response rating, Pigweed [3, 10]: 0 | Plant response rating, Foxtail, Giant [4, 7]: 0 | Plant response rating, Foxtail, Giant [4, 8]: 0 | Plant response rating, Foxtail, Giant [4, 9]: 0 | Plant response rating, Foxtail, Giant [4, 10]: 0 | Plant response rating, Crabgrass [5, 7]: 0 | Plant response rating, Crabgrass [5, 8]: 0 | Plant response rating, Crabgrass [5, 9]: 0 | Plant response rating, Crabgrass [5, 10]: 0 | Plant response rating, Velvetleaf [6, 7]: 0 | Plant response rating, Velvetleaf [6, 8]: 15 | Plant response rating, Velvetleaf [6, 9]: 0 | Plant response rating, Velvetleaf [6, 10]: 0

CC(C)c1nc(N)c(Cl)c(C(=O)[O-])n1.[Na+] [Compound 109]
Plant response rating, Morningglory [1, 7]: 70 | Plant response rating, Morningglory [1, 8]: 80 | Plant response rating, Morningglory [1, 9]: 30 | Plant response rating, Morningglory [1, 10]: 95 | Plant response rating, Barnyardgrass [2, 7]: 0 | Plant response rating, Barnyardgrass [2, 8]: 10 | Plant response rating, Barnyardgrass [2, 9]: 0 | Plant response rating, Barnyardgrass [2, 10]: 25 | Plant response rating, Pigweed [3, 7]: 60 | Plant response rating, Pigweed [3, 8]: 85 | Plant response rating, Pigweed [3, 9]: 50 | Plant response rating, Pigweed [3, 10]: 80 | Plant response rating, Foxtail, Giant [4, 7]: 0 | Plant response rating, Foxtail, Giant [4, 8]: 10 | Plant response rating, Foxtail, Giant [4, 9]: 0 | Plant response rating, Foxtail, Giant [4, 10]: 5 | Plant response rating, Crabgrass [5, 7]: 0 | Plant response rating, Crabgrass [5, 8]: 10 | Plant response rating, Crabgrass [5, 9]: 0 | Plant response rating, Crabgrass [5, 10]: 25 | Plant response rating, Velvetleaf [6, 7]: 25 | Plant response rating, Velvetleaf [6, 8]: 80 | Plant response rating, Velvetleaf [6, 9]: 15 | Plant response rating, Velvetleaf [6, 10]: 50
